Laboratory results taken from patent US10252997B2, “Monocyclic compound” (Takeda Pharmaceutical Company Limited, priority 2015, dated 2019).

What was measured:
HCT116 cells = assay: Growth inhibitory activity on HCT116 cell (CellTiter-Glo); type: cell-based; details: Homo sapiens, HCT-116, 72 h; test compound 1 μM, 3 days; read-out: HCT116 cell proliferation inhibitory rate (%) at 1 μM
Description: The growth inhibitory activity of the compound on HCT116 cell was evaluated by the following method.
HCT116 cells were seeded in a 384 well blackplate at 900 cells/[…]/well, and maintained in an assay medium (RPMI medium (Wako) containing 2% fetal bovine serum, 50 Unit/mL penicillin and […] streptomycin (Invitrogen)). The next day, a test compound dissolved in dimethyl sulfoxide (DMSO) was diluted with the assay medium, and the obtained compound solution was added by […] to each well of a plate containing HCT116 cells, and incubated at 37° C., 5% CO2 (test compound addition group).
A similar reaction was performed without adding a test compound (test compound non-addition group).
Furthermore, a similar reaction was performed under the conditions without adding HCT116 cell and a test compound (control group).
After 3 days, […] of a CellTiter-Glo reagent (Promega KK) was added to the well, and the mixture was stirred for 10 min. Thereafter, the luminescence value of each well was measured by the EnVision™ multilabel counter (Perkin Elmer Inc.).
The HCT116 cell proliferation inhibitory rate (%) of the test compound was determined by the following calculation formula. (1−(luminescence of test compound addition group−luminescence of control group)÷(luminescence of test compound non-addition group−luminescence of control group))×100
The HCT116 cell proliferation inhibitory rates (%) of the test compound (1 μM) are shown below.

Human ACC1 = molecular target: T1, Human ACC1 (Homo sapiens, UniProt Q13085); assay: Measurement of ACC1 inhibitory activity (Malonyl-CoA produced, RapidFire-mass spectrometry); type: biochemical; details: 10 μM of the test compound; read-out: ACC1 inhibitory rate (%) at 10 μM
T1 construct: His6 (from vector pFAST-BacHTc; purified on Ni-NTA) (N); made in house; host or cells: SF-9 insect cells, recombinant baculovirus BAC-ACC1
Description: (1) Cloning of Human ACC1 Gene and Preparation of Recombinant Baculovirus
Human ACC1 gene was cloned by PCR using a human liver cDNA library (Clontech) as a template and Primer 1 and Primer 2 shown below. Primer 1 and Primer 2 were prepared by adding SalI, NotI restriction enzyme recognition sequences based on the information of the base sequence of human ACC1 gene (Genbank Accession U19822).
PCR was performed using Pyrobest DNA polymerase (TAKARA BIO INC.). The obtained PCR product was cloned to pT7 Blue vector (Novagen) and after confirmation of the base sequence, digested with restriction enzymes SalI and […]. The obtained DNA fragment was inserted into pFAST-BacHTc (Invitrogen) digested with restriction enzymes SalI and […] to give expression plasmid ACC1/pFAST-BacHTc.
Using the expression plasmid ACC1/pFAST-BacHTc and BAC-TO-BAC Baculovirus Expression System (Invitrogen), virus stock BAC-ACC1 of recombinant Baculovirus was prepared.
(2) Preparation of ACC1 Protein
SF-9 cells (Invitrogen) were inoculated to a medium (10 L) for insect cells (Sf-900IISFM medium (Invitrogen) containing 5% fetal bovine serum (Trace), 50 mg/L Gentamicin (Wako Pure Chemical Industries, Ltd.) and 0.1% Pluronic F-68 (Invitrogen)) at 1.0×10^6 cells/mL, and cultured with shaking in Wave Bioreactor (GE Healthcare) at 27° C., 20 rpm, rocking angle 100, oxygen concentration 30%.
On day 2 of the culture, recombinant Baculovirus BAC-ACC1 was added, and the cells were cultured for 3 days. The culture medium was centrifuged at 4000×g for 10 min to give virus-infected cells. The cells were washed with phosphate buffered saline (Invitrogen) and centrifuged under the same conditions. The obtained cells were cryopreserved at −80° C.
The cryopreserved cells were thawed in ice, and suspended in 800 mL of 25 mM HEPES buffer (pH 7.5) containing 10% Glycerol, 0.3 M NaCl, 1 mM EDTA, 25 mM Sodium β-Glycerophosphate and 1 mM Sodium Orthovanadate, and supplemented with Complete Protease Inhibitor (Roche). The obtained suspension was homogenized two times in a polytron homogenizer (Kinematica) at 20,000 rpm for 20 sec. The obtained cell disruption solution was clarified by centrifugation at 186,000×g for 60 min, and the supernatant was passed through Ni-NTA Superflow Cartridges (5 mL) (QUIAGEN). Furthermore, it was washed with 25 mM HEPES buffer (pH 7.5) containing 20 mM Imidazole and 0.3 M NaCl, and eluted with 25 mM HEPES buffer (pH 7.5) containing 250 mM Imidazol and 0.3 M NaCl. The eluate was concentrated by Amicon Ultra-15 (Nihon Millipore K.K.) having a fraction molecular weight of 50K. The obtained concentrate was subjected to gel filtration with 50 mM HEPES buffer (pH 7.5) containing 10 mM MgCl2, 2 mM dithiothreitol, 10 mM tripotassium citrate and 0.3 M NaCl by using HiLoad 26/60 Superdex200 prep grade gel filtration column (GE Healthcare) to give ACC1. The obtained ACC1 was cryopreserved at −80° C.
(3) Measurement of ACC1 Inhibitory Activity
ACC1 obtained in the above-mentioned (2) was diluted with an enzyme reaction buffer (50 mM HEPES (pH 7.5), 10 mM MgCl2, 10 mM Tripottasium Citrate, 2 mM Dithiothreitol, 0.001% Fatty acid free BSA) to a concentration of 0.2 μg/ml, and the mixture was added to each well of a 384 well assay plate by 10 μl. A test compound dissolved in dimethyl sulfoxide (DMSO) was diluted with an enzyme reaction buffer, and the resulting solution (5 μl) was added to each well. The mixture was incubated at room temperature for 60 min. Then, a substrate solution (50 mM KHCO3, 200 μM ATP, 200 μM Acetyl-CoA, 5 μl) was added to each well, and the mixture was reacted at room temperature for 30 min. The reaction was quenched by adding a reaction quenching liquid (1.3% formic acid, 0.2 μM Malonyl-^13C3-CoA) by 60 μL each to the obtained reaction mixtures (test compound addition group).
In addition, a reaction was performed in the same manner as above and without adding the test compound (test compound non-addition group). […]

| inhibition at 10 µM (Human ACC1) [%] | SMILES | inhibition at 1 µM (HCT116 cells) [%] |
| --- | --- | --- |
| 99 | CC(=O)N[C@@H](C)COc1cnc(-c2ccc(Oc3cccc(OCC4CC4)c3)cc2)o1 [Example 30, N-((2S)-1-((2-(4-(3-(cyclopropylmethoxy)phenoxy)phenyl)-1,3-oxazol-5-yl)oxy)propan-2-yl)acetamide] | 28 |
| 99 | CC(=O)NC(C)CC(=O)c1cnc(-c2ccc(Oc3cccc(OCC4CC4)c3)cc2)o1 (stereo not shown) [Example 64, N-(4-(2-(4-(3-(cyclopropylmethoxy)phenoxy)phenyl)-1,3-oxazol-5-yl)-4-oxobutan-2-yl)acetamide] | 35 |
